From patent US6743446B2, “Methods for stabilizing biologically active agents encapsulated in biodegradable controlled-release polymers” (The Ohio State University Research Foundation, priority 1999, dated 2004)
Where a name gives a salt, the structure may show the parent alone. Each block holds one compound with its values, some of them ahead of it.

What was measured:
[1] = pH of saturated basic salt suspension after addition of 1 N HCl; type: physicochemical; details: acid added to the saturated suspension with excess salt, 37° C., 3 days
Text: The difference of the neutralization effect from the salts is also reflected in the different water contents of their PLGA devices.

[2] = pH measurement of saturated basic salts in water; type: physicochemical; details: excess basic salt suspended in water, 37° C., 7 days
Experimental: The suspension was then incubated at 37° C. for 7 days. The pH of the supernatant was determined with a Corning 430 pH meter (Corning Inc., NY).

BSA [3] = molecular target: T1, BSA (Bos taurus, UniProt P02769); assay: BSA release and aggregation in PLGA millicylinders incubated in PBST at 37° C.; type: physicochemical, bovine
T1 construct: purchased Sigma Chemical Co. (St. Louis, Mo.) A-3059
Experimental: A solvent extrusion method similar to that used previously by our group for intraocular implants was used to prepare the PLGA cylinders with a diameter on the millimeter scale, which we term millicylinders. Briefly, a uniform suspension of sieved protein powder (<90 μm) with or without basic salt in 50% (w/w) acetone-PLGA 50/50 solution was loaded in a syringe and extruded into a silicone tubing (I.D. 0.8 mm) at about 0.1 ml/min. The solvent extruded suspension was dried at room temperature for 24 h and then dried in a vacuum oven at 45° C. for another 24 h before testing. The protein loading was calculated as the percentage of amount of BSA versus the total weight of mixture (i.e., protein, polymer, and salt).
Release of protein was carried out in PBST (which consists of PBS (7.74 mM Na2HPO4, 2.26 mM NaH2O4, 137 mM NaCl, and 3 mM KCl, pH 7.4), and 0.02% w/v Tween® 80) at 37° C. under perfect sink conditions. Millicylinders (10×0.8 mm, 5-10 mg or microspheres (about 20 mg) were placed in I ml of the release medium and the medium was replaced at each time point. The protein content was determined by using Coornassie plus protein assay reagent, which is also compatible with denaturing agents (e.g., 6 M urea) and reducing agents (e.g., 10 mM DTT).
Protein stability was assessed by the percentage of water insoluble non-covalent BSA aggregates generated within the implants versus the initial encapsulated protein. Protein stability within PLGA implants was analyzed as follows: First, millicylinders with a length of 1 cm were incubated under 80% and 96% relative humidity (RH) at 37° C. for 21 days. Then, the polymer was dissolved in acetone and centrifuged to spin down the protein. The remaining protein pellet was washed three times with acetone and then air-dried. The final protein pellet was analyzed as in Analysis of the Protein Extracted from PLGA Implants. The protein remaining in PLGA implants after release in PBST at 37° C. for 28 days was also extracted similarly and analyzed as above.
The BSA pellet extracted from PLGA implants was first reconstituted in PBST and incubated at 37° C. overnight to determine the soluble protein fraction remaining in the polymer. Any remaining aggregates were collected by centrifugation again, and brought up in the denaturing solvent (PBST/6 M urea/1 mM EDTA) and incubated at 37° C. for 30 mm to dissolve non-covalent bonded BSA aggregates. Then, any final undissolved BSA aggregates were collected again and dissolved in the reducing solvent (the denaturing solvent plus 10 mM DTT) to dissolve any disulfide-bonded aggregates.
For quantitation of soluble BSA, a modified Bradford assay was used as follows: 10 μl of standard or sample in PBST was added to 250 μl of Coomassle reagent/well on a 96-well plate and then the plate was read at 595 nm using a Dynex MRX microplate reader (Dynex Technology, Inc., Chantilly, Va.). The concentration range of the standard curve was 50 to 1000 μg/ml. For quantitation of non-covalent and covalent BSA aggregates, the solvents used for preparation of standards and samples were 6 M urea and 6 M urea/10 mM DTT, respectively.
The solvent-extruded suspension was dried at room temperature (24 h) and then dried in a vacuum oven at 45° C. (24 h). For preparation of bFGF millicylinders, bFGF was combined with heparin, sucrose and BSA additives at a weight ratio (additive bFGF) of 1, 180, and 1000, respectively, in 0.5 mM EDTA and 10 mM sodium phosphate buffer (pH 7.4). The solution was lyophilized for 2 days at room temperature using a Labconco Freeze Dry System (Kansas City, Mo.) to a fine powder with 4% moisture (determined by a Karl Fisher Titrator (Model DL 18, Mettler-Toledo Inc., NJ)) and sieved before suspension in PLGA-acetone and extrusion. For preparation of […] millicylinders, solutions of BMP-2 combined with BSA or gum arabic (Sigma, St. Louis, Mo.) were similarly lyophilized and sieved. The millicylinders; were prepared in the same way as for BSA/PLGA millicylinders. […]

BSA [4] = molecular target: T1, BSA; assay: BSA release and aggregation in W/O/W PLGA microspheres in PBST at 37° C.; type: physicochemical, bovine
[5] = VCR and VBL stability and release in PLGA microspheres by HPLC; type: physicochemical
Experimental: All other reagents and solvents were of analytical grade or purer and purchased from commercial suppliers. Microspheres Preparation Microspheres were prepared by a standard oil-in-oil emulsion-solvent extraction method (17). […] The resulting solution or suspension was added drop-wise to 25 ml of oil (95% cottonseed oil and 5% Span 85 emulsifier) stirred at 500 rpm and room temperature. After 2.5 h of microsphere hardening. 40 ml of petroleum ether (bp: 50 to 100° C.) were added to the emulsion to extract CAN. The emulsion was stirred for additional 15 min, the particles were collected by filtration, and washed 3 times with petroleum ether. The hardened microspheres were flash-frozen with liquid nitrogen and lyophilized with a Labconco Freezone 6 system for 1 day.
The HPLC system consisted of the following: a 510 pump, a 717 Plus autosampler, and a 486 UV detector (waters, Milford, Mass.). […] The mobile phase was composed of aqueous solution of sodium phosphate (10 mM) and methanol 40:60 (v/v) (pH 7.0). For UV detection, the wavelength was set to 298 nm.
Drug release from microspheres was carried out in PBS (127 mM NaCl, 3 mM KCl, 8 mM Na2HPO4, 1 mM KH2PO4, pH 7.4) containing Tween 80 (0.02% w/w/) (PBST) at 37° C. under perfect sink conditions. […] Microspheres were weighed and dissolved in a 50% (v/v) ACN water solution. The precipitated polymer and salts were spun down by brief centrifugation. An aliquot of the supernatant containing drug was removed and analyzed by HPLC.

BSA [6] = molecular target: T1, BSA; assay: Simulation of BSA instability in the polymer microclimate; type: physicochemical, bovine; details: Simulated: lyophilized BSA at pH 2 under 86% R.H. at 37° C.
Experimental: Three experiments were designed to simulate the potential deleterious conditions in PLGA devices. […] At various times, the protein was reconstituted in PBST and examined for the type of aggregates as described above. To examine the effect of water, water was directly added to lyophilized BSA at pH 2, sealed and then incubated at 37° C. for 1 week, and analyzed as above (16). […] Loss of BSA content from solution was used to determine the extent of BSA adsorption to the polymer.

nude mice = assay: In vivo angiogenesis of subcutaneously implanted bFGF devices; details: BSA/Mg(OH)2-containing PLGA formulation implanted subcutaneously, data not shown
Text: In both cases, a controlled release of protein was observed over 28 days (data not shown) resulting in a recovery (released+soluble residue fraction) of >80% (Table 3). In contrast, when the base was removed from the formulation (18% gum arabic), only 30% protein was recovered by the immunoassay. Therefore, the stability characteristic of BMP-2 in PLGA millicylinders was very similar to that of bFGF (although additional stabilizers were used for bFGF) with and without the addition of the basic additive. For both growth factors, in the absence of basic additive, the protein was released mostly on the first day and only a small amount of protein could be recovered from the polymer after 28 days release. In the presence of the basic salt, both proteins were continuously released with >80% recoverable in the 28-day experiment. Moreover, the in vivo biological activities (angiogenesis in nude mice for the bFGF and osteogenesis in rats for the BMP-2) of the BSA/Mg(OH)2-containing formulations were also confirmed when the devices were implanted subcutaneously (data not shown).

[7] = reference (31); cited from earlier work
Balb/c 3T3 fibroblasts = assay: Bioassay for bFGF, cell proliferation (3H-thymidine incorporation); type: cell-based; details: bFGF from Mg(OH)2/BSA/heparin PLGA millicylinders, release and residual fraction
Experimental: The biological activity of bFGF was determined by a cell proliferation assay (20). Balb/c 3T3 fibroblasts (25,000/well, CCL-163, ATCQ in Dulbecco's modified Eagle's medium (DMEM) containing 10% bovine calf serum, […] were seeded (200 μl/well) on 96-well plates. The cells were grown to confluence for one week without changing the medium. On day 7, bFGF samples or standards (10 μl) in the release medium were added and followed 20 h later by addition of 1 μCi of 3H-thymidine (6.7 Ci/mmol, DuPont/NEN® Research Products, Boston, Mass.) per well. After another 6-8 h, the cells were collected on filter paper by using a PHD TM cell harvester (Cambridge Technology Inc.). The harvested cells were resuspended in 3 ml of scintillation cocktail 3a7OB (Research Products International Corp., IL) and counted (Beckman LS 1701 scintillation counter).

tPA = tPA (Homo sapiens, UniProt P00750); assay: tPA release from PLGA millicylinders by activity analysis; type: physicochemical
Experimental: Here, by using this rationale, tPA was successfully encapsulated into PLGA implants. tPA, a protein with a MW of ˜60 K Da is a tissue type endogenous serine proteaese involved in thrombi dissolution. The FDA has approved the use of recombinant tPA in the treatment of myocardial infarction. Controlled release systems for local delivery was developed by using hydrogel to control wound healing. A multi-drug controlled release implant with tPA encapsulated was also tested for the intraocular management of proliferative vitroretinopahty (PVR). […] Arginine hydrochloride and BSA were added in the release medium to improve the stability of released tPA. The release profile and active residue of tPA after release was evaluated by activity analysis. […] As far as is known, only very few protein formulations have shown continuous and complete release over one month period without losing activity.

T1 sequence (P02769 25-607): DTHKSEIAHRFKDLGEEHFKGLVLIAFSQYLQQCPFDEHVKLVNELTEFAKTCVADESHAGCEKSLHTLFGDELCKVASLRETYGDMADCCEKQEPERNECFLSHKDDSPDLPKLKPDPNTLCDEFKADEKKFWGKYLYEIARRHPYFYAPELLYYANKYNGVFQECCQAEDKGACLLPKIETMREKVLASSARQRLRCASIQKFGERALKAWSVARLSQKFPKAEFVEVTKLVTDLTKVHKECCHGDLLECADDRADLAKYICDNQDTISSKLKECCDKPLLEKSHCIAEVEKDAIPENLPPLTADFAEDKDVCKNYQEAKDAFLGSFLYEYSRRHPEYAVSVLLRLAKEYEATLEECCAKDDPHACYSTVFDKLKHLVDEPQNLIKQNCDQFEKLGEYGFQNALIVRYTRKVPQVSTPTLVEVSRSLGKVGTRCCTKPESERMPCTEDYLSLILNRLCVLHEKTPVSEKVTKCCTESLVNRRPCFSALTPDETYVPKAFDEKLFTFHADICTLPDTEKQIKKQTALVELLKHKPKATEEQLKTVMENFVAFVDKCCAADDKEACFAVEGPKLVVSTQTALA
Sequence of tPA (P00750 36-562): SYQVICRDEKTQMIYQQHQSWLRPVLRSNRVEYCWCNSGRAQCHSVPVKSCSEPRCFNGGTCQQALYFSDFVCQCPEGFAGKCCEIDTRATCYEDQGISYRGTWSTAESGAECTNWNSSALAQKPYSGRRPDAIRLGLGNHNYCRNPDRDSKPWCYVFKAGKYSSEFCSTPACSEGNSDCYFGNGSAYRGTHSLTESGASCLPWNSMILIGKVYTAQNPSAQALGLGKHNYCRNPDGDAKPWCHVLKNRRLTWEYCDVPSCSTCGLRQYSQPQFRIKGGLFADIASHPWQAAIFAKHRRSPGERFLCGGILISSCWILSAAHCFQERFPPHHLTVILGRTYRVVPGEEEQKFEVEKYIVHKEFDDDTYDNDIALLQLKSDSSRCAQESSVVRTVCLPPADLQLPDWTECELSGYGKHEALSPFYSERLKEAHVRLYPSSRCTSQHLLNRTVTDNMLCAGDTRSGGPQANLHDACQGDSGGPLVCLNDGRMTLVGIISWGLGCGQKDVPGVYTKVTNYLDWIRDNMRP

Compound: O=P([O-])([O-])[O-].O=P([O-])([O-])[O-].[Ca+2].[Ca+2].[Ca+2] [Ca3(PO4)2]
pH after addition of 100 μl of 1 N HCl [1]: 3.71
pH of saturated solution [2]: 7.77

Compound: [Ca+2].[OH-].[OH-] [Ca(OH)2]
pH after addition of 100 μl of 1 N HCl [1]: 12.20
pH of saturated solution [2]: 12.4

Compound: O=C([O-])[O-].[Ca+2] [CaCO3]
pH after addition of 100 μl of 1 N HCl [1]: 6.07
pH of saturated solution [2]: 9.26

Compound: O=C([O-])[O-].[Mg+2] [MgCO3]
pH after addition of 100 μl of 1 N HCl [1]: 9.01
stabilization of BSA (BSA [3]; PLGA millicylinders): stabilized BSA much better than the Mg(OH)2
Released (BSA [4]; 3% BSA/PLGA50/50 (0.20 dl/g) microspheres, 51-day release in PBST at 37° C.): more than 50%
BSA release after the first day burst over 28 days (BSA [4]; 4% BSA/PLGA50/50 (0.64 dl/g) W/O/W microspheres with basic salt): up to 10%
burst (BSA [4]; BSA/PLGA (0.20 dl/g) microspheres, data not shown): 32%
pH of saturated solution [2]: 9.75

Compound: Bovine serum albumin [BSA]
Time to 50% aggregation (BSA [6]): 7 days
Aggregates soluble in denaturing solvent (BSA [6]; PBST with 6M urea, 1 mM EDTA): >94%
Peptide fragmentation (BSA [6]; SDS-PAGE): 25, 40, and 55 kDa
initially encapsulated BSA that formed non-covalent aggregates (BSA [3]; 15% BSA/PLGA implants without base, 2 weeks release in PBST at 37° C., previous results): more than 60%
Aggregates soluble in denaturing solvent (BSA [3]; Encapsulated: 15% BSA in PLGA millicylinders in PBST at 37° C., PBST with 6M urea, 1 mM EDTA): >98%
Peptide fragmentation (BSA [3]; Encapsulated: 15% BSA in PLGA millicylinders in PBST at 37° C., SDS-PAGE): 25, 40, and 55 kDa
Time to 50% aggregation (BSA [3]; Encapsulated: 15% BSA in PLGA millicylinders incubated in PBST at 37° C.): 12 days
protein released in 1 day (BSA [3]; PLGA millicylinders, 20% BSA loading without the base): > 90%
non-covalent aggregates (BSA [4]; BSA in PLGA microspheres by solvent evaporation, no base): 25-75%
disulfide-bonded aggregates (BSA [4]; BSA in PLGA microspheres, some control experiments): < 5%

Compound: bFGF: recombinant human basic fibroblast growth factor
in vivo biological activity, angiogenesis (nude mice): confirmed
in vivo serum half-life [7]: < 3 min
bFGF bioactive over the entire release interval (Balb/c 3T3 fibroblasts): 65-85%

Other lines, results leading:

stability of encapsulated drug ([5]; PLGA (50% D,L lactide content) microspheres): highly stabilized
Compound: CC[C@]1(O)C[C@@H]2CN(CCc3c([nH]c4ccccc34)[C@@](C(=O)OC)(c3cc4c(cc3OC)N(C)[C@H]3[C@@](O)(C(=O)OC)[C@H](OC(C)=O)[C@]5(CC)C=CCN6CC[C@]43[C@@H]65)C2)C1 [VBL, vinblastine sulfate]

pH after addition of 100 μl of 1 N HCl [1]: 1.53
pH of saturated solution [2]: 6.82
Compound: O=P([O-])([O-])[O-].O=P([O-])([O-])[O-].[Zn+2].[Zn+2].[Zn+2] [Zn3(PO4)2]

pH after addition of 100 μl of 1 N HCl [1]: 5.86
pH of saturated solution [2]: 8.85
Compound: [OH-].[OH-].[Zn+2] [Zn(OH)2]

pH after addition of 100 μl of 1 N HCl [1]: 5.36
drug degraded to the basic product during microsphere preparation ([5]; VCR PLGA microspheres with co-encapsulated base): 3%
pH of saturated solution [2]: 7.34
Compound: O=C([O-])[O-].[Zn+2] [ZnCO3]

one month release of tPA (tPA; 10% tPA powder in PLGA millicylinders with 3% Mg(OH)2): 98.0±0.2%
one month release of tPA (tPA; 10% tPA powder in PLGA millicylinders without Mg(OH)2): 77.1±2.6%
Compound: tPA: tissue type endogenous serine protease, encapsulated as 10% tPA powder in PLGA millicylinders
